According to patent US10538555B2, “Macrocyclic inhibitors of the PD-1/PD-L1 and CD80(B7-1)/PD-L1 protein/protein interactions” (BRISTOL-MYERS SQUIBB COMPANY, priority 2014, dated 2020):
Where two headings read alike, the source gives them in different places. Where a SMILES comes first, the peptide text is derived from it. Bridges are numbered along the chain shown (N, C = ends). [ ]: non-standard residue; d: D form. Hyp = O=C(O)[C@@H]1C[C@@H](O)CN1; NMeNle = CCCC[C@H](NC)C(=O)O; Pip = O=C(O)[C@@H]1CCCCN1; NMeA = CN[C@@H](C)C(=O)O; Dab = NCC[C@H](N)C(=O)O; Dap = NC[C@H](N)C(=O)O

Molecular target: T1, Human PD-L1/PD-1 (Homo sapiens, UniProt Q9NZQ7)
T1 construct: TVMV protease cleavage site (C); made in house; host or cells: HEK293T cells
T1 sequence (Q9NZQ7 with tags, fused parts or gaps): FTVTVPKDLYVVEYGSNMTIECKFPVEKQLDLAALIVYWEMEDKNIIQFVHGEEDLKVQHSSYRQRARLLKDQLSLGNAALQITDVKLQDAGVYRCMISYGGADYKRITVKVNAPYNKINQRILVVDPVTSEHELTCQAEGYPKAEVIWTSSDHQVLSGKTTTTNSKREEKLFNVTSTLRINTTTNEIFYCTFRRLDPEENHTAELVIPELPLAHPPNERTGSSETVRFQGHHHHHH
Test: HTRF Human PD-L1/PD-1 binding assay (PD-1-Ig/PD-L1-His)
Settings: PD-L1-His 10 nM, PD-1-Ig 20 nM
Text: Methods for Testing the Ability of Macrocyclic Peptides to Compete for the Binding of PD-1 to PD-L1 Using Homogenous Time-Resolved Fluorescence (HTRF) Binding Assays
The ability of the macrocyclic peptides of the present disclosure to bind to PD-L1 was investigated using a PD-1/PD-L1 Homogenous Time-Resolved Fluorescence (HTRF) binding assay.
Homogenous Time-Resolved Fluorescence (HTRF) Assays of Binding of Soluble PD-1 to Soluble PD-L1. Soluble PD-1 and soluble PD-L1 refers to proteins with carboxyl-end truncations that remove the transmembrane-spanning regions and are fused to heterologous sequences, specifically the Fc portion of the human immunoglobuling G sequence (Ig) or the hexahistidine epitope tag (His). All binding studies were performed in an HTRF assay buffer consisting of dPBS supplemented with 0.1% (w/v) bovine serum albumin and 0.05% (v/v) Tween-20. For the PD-1-Ig/PD-L1-His binding assay, inhibitors were pre-incubated with PD-L1-His (10 nM final) for 15 m in 4 μl of assay buffer, followed by addition of PD-1-Ig (20 nM final) in 1 μl of assay buffer and further incubation for 15 m. PD-L1 fusion proteins from either human, cynomolgus macaques, or mouse were used. HTRF detection was achieved using europium crypate-labeled anti-Ig monoclonal antibody (1 nM final) and allophycocyanin (APC) labeled anti-His monoclonal antibody (20 nM final). Antibodies were diluted in HTRF detection buffer and 5 μl was dispensed on top of binding reaction. The reaction was allowed to equilibrate for 30 minutes and signal (665 nm/620 nm ratio) was obtained using an EnVision fluorometer. Additional binding assays were established between PD-1-Ig/PD-L2-His (20 and 5 nM, respectively), CD80-His/PD-L1-Ig (100 and 10 nM, respectively) and CD80-His/CTLA4-Ig (10 and 5 nM, respectively). Competition studies between biotinylated Compound No. 71 and human PD-L1-His were performed as follows. Macrocyclic peptide inhibitors were pre-incubated with PD-L1-His (10 nM final) for 60 minutes in 4 μl of assay buffer followed by addition of biotinylated Compound No. 71 (0.5 nM final) in 1 μl of assay buffer. Binding was allowed to equilibrate for 30 minutes followed by addition of europium crypated labeled Streptavidin (2.5 pM final) and APC-labeled anti-His (20 nM final) in 5 μl of HTRF buffer. The reaction was allowed to equilibrate for 30 m and signal (665 nm/620 nm ratio) was obtained using an EnVision fluorometer.
Recombinant Proteins. Carboxyl-truncated human PD-1 (amino acids 25-167) with a C-terminal human Ig epitope tag [hPD-1 (25-167)-3S-IG] and human PD-L1 (amino acids 18-239) with a C-terminal His epitope tag [hPD-L1([…])-tobacco vein mottling virus protease cleavage site (TVMV)-His] were expressed in HEK293T cells and purified sequentially by rProteinA affinity chromatography and size exclusion chromatography.

[1] = class symbol, read-out: HTRF Human PD-L1/PD-1 Binding Assay IC50 Range
[2] = read-out: HTRF Human PD-L1/PD-1 Binding Assay IC50

SMILES	IC50 [1] [nM]	IC50 [2] [nM]
CCCC[C@H]1C(=O)N(C)CC(=O)N[C@@H](CC(=O)O)C(=O)N[C@@H](C(C)C)C(=O)N(C)[C@@H](Cc2ccccc2)C(=O)N[C@@H](Cc2ccc(O)cc2)C(=O)N(C)CC(=O)NC(C)(Cc2c[nH]c3ccccc23)C(=O)N[C@@H](Cc2ccc(O)cc2)C(=O)N[C@@H](CC(C)C)C(=O)N[C@H](C(=O)NCC(N)=O)CSCC(=O)N[C@@H](Cc2ccccc2)C(=O)N(C)[C@@H](Cc2ccccc2)C(=O)N1C (single isomer, unassigned) [Example 3640-B]	100 to 990	
CCCC[C@H]1C(=O)N(C)[C@@H](CCCC)C(=O)N[C@@H](CN)C(=O)N[C@H](C(=O)NCC(N)=O)CSCC(=O)N[C@@H](Cc2ccc(O)cc2)C(=O)N(C)[C@@H](C)C(=O)N[C@@H](CC(=O)O)C(=O)N2CCC[C@H]2C(=O)N[C@@H](Cc2c[nH]cn2)C(=O)N[C@@H](CCC(=O)O)C(=O)N2C[C@H](O)C[C@H]2C(=O)N[C@@H](Cc2c[nH]c3ccccc23)C(=O)N[C@@H](CCN)C(=O)N[C@@H](Cc2cn(CC(=O)O)c3ccccc23)C(=O)N1C (single isomer, unassigned) [Example 5203]	1 to 9.9	
CCCC[C@H]1C(=O)N(C)[C@@H](CCCC)C(=O)N[C@@H](CCCN)C(=O)N[C@H](C(=O)NCC(N)=O)CSCC(=O)N[C@@H](Cc2ccc(O)cc2)C(=O)N2CCC(C)(C)[C@H]2C(=O)N[C@@H](CC(N)=O)C(=O)N2CCCC2C(=O)N[C@@H](Cc2cnc[nH]2)C(=O)N[C@@H](CC(C)C)C(=O)N2C[C@H](O)C[C@H]2C(=O)N[C@@H](Cc2c[nH]c3ccccc23)C(=O)N[C@@H](CO)C(=O)N[C@@H](Cc2c[nH]c3ccccc23)C(=O)N1C (some centres unmarked) [Example 1240]	1000 to 10000	
CCCC[C@H]1C(=O)N(C)[C@@H](CCCC)C(=O)N[C@@H](CCCN)C(=O)N[C@H](C(=O)NCC(N)=O)CSCC(=O)N[C@@H](Cc2ccc(O)cc2)C(=O)N2CCC[C@]2(C)C(=O)N[C@@H](CC(N)=O)C(=O)N2CCCC2C(=O)N[C@@H](Cc2cnc[nH]2)C(=O)N[C@@H](CC(C)C)C(=O)N2C[C@H](O)C[C@H]2C(=O)N[C@@H](Cc2c[nH]c3ccccc23)C(=O)N[C@@H](CO)C(=O)N[C@@H](Cc2c[nH]c3ccccc23)C(=O)N1C (some centres unmarked) [Example 1241]		1000
CCCC[C@H]1C(=O)N(C)[C@@H](CCCC)C(=O)N[C@@H](C)C(=O)N[C@H](C(=O)NCC(N)=O)CSCC(=O)N[C@@H](Cc2ccc(O)cc2)C(=O)N(C)[C@@H](C)C(=O)N[C@@H](CC(N)=O)C(=O)N2CCC[C@H]2C(=O)N[C@@H](Cc2cnc[nH]2)C(=O)N[C@@H](CCN)C(=O)N2C[C@H](O)C[C@H]2C(=O)N[C@@H](Cc2c[nH]c3ccccc23)C(=O)N[C@@H](CO)C(=O)N[C@@H](Cc2c[nH]c3ccccc23)C(=O)N1C [Example 1245]	10 to 99.9	
CCCC[C@H]1C(=O)N(C)[C@@H](CCCC)C(=O)N[C@@H](C)C(=O)N[C@H](C(=O)NCC(N)=O)CSCC(=O)N[C@@H](Cc2ccc(O)cc2)C(=O)N(C)[C@@H](C)C(=O)N[C@@H](CC(=O)O)C(=O)N2CCC[C@H]2C(=O)N[C@@H](Cc2cnc[nH]2)C(=O)N[C@@H](CCCCN)C(=O)N2C[C@H](O)C[C@H]2C(=O)N[C@@H](Cc2c[nH]c3ccccc23)C(=O)N[C@@H](CO)C(=O)N[C@@H](Cc2c[nH]c3ccccc23)C(=O)N1C [Example 1247] ({CH2CO}-Y[NMeA]DPHK[Hyp]WSW[NMeNle][NMeNle]ACG-NH2; thioether N-14)	10 to 99.9	
CCCC[C@H]1C(=O)N(C)[C@@H](CCCC)C(=O)N[C@@H](C)C(=O)N[C@H](C(=O)NCC(N)=O)CSCC(=O)N[C@@H](Cc2ccc(O)cc2)C(=O)N(C)[C@@H](C)C(=O)N[C@@H](CCC(=O)O)C(=O)N2CCC[C@H]2C(=O)N[C@@H](Cc2cnc[nH]2)C(=O)N[C@@H](CCN)C(=O)N2C[C@H](O)C[C@H]2C(=O)N[C@@H](Cc2c[nH]c3ccccc23)C(=O)N[C@@H](CO)C(=O)N[C@@H](Cc2c[nH]c3ccccc23)C(=O)N1C [Example 1248] ({CH2CO}-Y[NMeA]EPH[Dab][Hyp]WSW[NMeNle][NMeNle]ACG-NH2; thioether N-14)	10 to 99.9	
CCCC[C@H]1C(=O)N(C)[C@@H](CCCC)C(=O)N[C@@H](CCC(=O)O)C(=O)N[C@H](C(=O)NCC(N)=O)CSCC(=O)N[C@@H](Cc2ccc(O)cc2)C(=O)N2CCCC[C@H]2C(=O)N[C@@H](CC(N)=O)C(=O)N2CCC[C@H]2C(=O)N[C@@H](Cc2cnc[nH]2)C(=O)N[C@@H](CCC(N)=O)C(=O)N2C[C@H](O)C[C@H]2C(=O)N[C@@H](Cc2c[nH]c3ccccc23)C(=O)N[C@@H](CO)C(=O)N[C@@H](Cc2c[nH]c3ccccc23)C(=O)N1C [Example 1250] ({CH2CO}-Y[Pip]NPHQ[Hyp]WSW[NMeNle][NMeNle]ECG-NH2; thioether N-14)	1 to 9.9	
CCCC[C@H]1C(=O)N(C)[C@@H](CCCC)C(=O)N[C@@H](C)C(=O)N[C@H](C(=O)NCC(N)=O)CSCC(=O)NC(Cc2ccc(O)cc2)C(=O)N2CCCC[C@H]2C(=O)N[C@@H](CC(N)=O)C(=O)N2CCC[C@H]2C(=O)N[C@@H](Cc2c[nH]cn2)C(=O)N[C@@H](CC(C)C)C(=O)N2C[C@H](O)C[C@H]2C(=O)N[C@@H](Cc2c[nH]c3ccccc23)C(=O)N[C@@H](CO)C(=O)N[C@@H](Cc2c[nH]c3ccccc23)C(=O)N1C (some centres unmarked) [Example 1251]	1 to 9.9	
CCCC[C@H]1C(=O)N(C)[C@@H](CCCC)C(=O)N[C@@H](CCC(=O)O)C(=O)N[C@H](C(=O)NCC(N)=O)CSCC(=O)N[C@@H](Cc2ccc(O)cc2)C(=O)N2CCCC[C@H]2C(=O)N[C@@H](CC(N)=O)C(=O)N2CCC[C@H]2C(=O)N[C@@H](Cc2cnc[nH]2)C(=O)N[C@@H](CCC(=O)O)C(=O)N2C[C@H](O)C[C@H]2C(=O)N[C@@H](Cc2c[nH]c3ccccc23)C(=O)N[C@@H](CO)C(=O)N[C@@H](Cc2c[nH]c3ccccc23)C(=O)N1C [Example 1252] ({CH2CO}-Y[Pip]NPHE[Hyp]WSW[NMeNle][NMeNle]ECG-NH2; thioether N-14)	1 to 9.9	
CCCC[C@H]1C(=O)N(C)[C@@H](CCCC)C(=O)N[C@@H](C)C(=O)N[C@H](C(=O)NCC(N)=O)CSCC(=O)N[C@@H](Cc2ccc(O)cc2)C(=O)N2CCCC[C@H]2C(=O)N[C@@H](CC(N)=O)C(=O)N2CCC[C@H]2C(=O)N[C@@H](Cc2cnc[nH]2)C(=O)N[C@@H](CCC(N)=O)C(=O)N2C[C@H](O)C[C@H]2C(=O)N[C@@H](Cc2c[nH]c3ccccc23)C(=O)N[C@@H](CO)C(=O)N[C@@H](Cc2c[nH]c3ccccc23)C(=O)N1C [Example 1255]		2.6
CCCC[C@H]1C(=O)N(C)[C@@H](CCCC)C(=O)N[C@@H](CCC(=O)O)C(=O)N[C@H](C(=O)NCC(N)=O)CSCC(=O)N[C@@H](Cc2ccc(O)cc2)C(=O)N2CCCC[C@H]2C(=O)N[C@@H](CC(=O)O)C(=O)N2CCC[C@H]2C(=O)N[C@@H](Cc2cnc[nH]2)C(=O)N[C@@H](CCC(=O)O)C(=O)N2C[C@H](O)C[C@H]2C(=O)N[C@@H](Cc2c[nH]c3ccccc23)C(=O)N[C@@H](CO)C(=O)N[C@@H](Cc2c[nH]c3ccccc23)C(=O)N1C [Example 1256] ({CH2CO}-Y[Pip]DPHE[Hyp]WSW[NMeNle][NMeNle]ECG-NH2; thioether N-14)	1 to 9.9	
CCCC[C@H]1C(=O)N(C)[C@@H](CCCC)C(=O)N[C@@H](C)C(=O)N[C@H](C(=O)NCC(N)=O)CSCC(=O)N[C@@H](Cc2ccc(O)cc2)C(=O)N2CCCC[C@H]2C(=O)N[C@@H](CC(=O)O)C(=O)N2CCC[C@H]2C(=O)N[C@@H](CN)C(=O)N[C@@H](CCC(N)=O)C(=O)N2C[C@H](O)C[C@H]2C(=O)N[C@@H](Cc2c[nH]c3ccccc23)C(=O)N[C@@H](CO)C(=O)N[C@@H](Cc2c[nH]c3ccccc23)C(=O)N1C [Example 1257] ({CH2CO}-Y[Pip]DP[Dap]Q[Hyp]WSW[NMeNle][NMeNle]ACG-NH2; thioether N-14)	1 to 9.9	
CCCC[C@H]1C(=O)N(C)[C@@H](CCCC)C(=O)N[C@@H](C)C(=O)N[C@H](C(=O)NCC(N)=O)CSCC(=O)N[C@@H](Cc2ccc(O)cc2)C(=O)N2CCCC[C@H]2C(=O)N[C@@H](CC(=O)O)C(=O)N2CCC[C@H]2C(=O)N[C@@H](CN)C(=O)N[C@@H](CCC(=O)O)C(=O)N2C[C@H](O)C[C@H]2C(=O)N[C@@H](Cc2c[nH]c3ccccc23)C(=O)N[C@@H](CO)C(=O)N[C@@H](Cc2c[nH]c3ccccc23)C(=O)N1C [Example 1258] ({CH2CO}-Y[Pip]DP[Dap]E[Hyp]WSW[NMeNle][NMeNle]ACG-NH2; thioether N-14)	1 to 9.9	
